Earlier results, collected in patent US20220047626A1, “COMPOSITION OF A SPRAY FORMULA TO CONTROL MASTITIS IN BOVINES” (priority 2018, published 2022).

Conditions: stated in the description, no method given

SMILES | viscosity [cP]
OCC(O)CO [glycerin] | 950
OC[C@@H](O)[C@@H](O)[C@H](O)[C@@H](O)CO [sorbitol] | 200
CC(O)CO (stereo not drawn) [propylene glycol] | 52
